Data taken from PubChem BioAssay (NCI).
Several values for one entry are separate records, joined by “and”; a condition that tells them apart may be missing. Equal values may be shown once.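 Where inhibition never reached the appropriate level, the endpoint shown equals the highest concentration tested. Otherwise, values were interpolated linearly from a five-concentration, 48-hour dose response in 96-well plates. At the GI50, growth is halved. TGI: total growth inhibition.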

Columns and labels:
Assay in all cases: NCI tumour cell line growth inhibition, 48 h
MALME-3M melanoma = tested on: MALME-3M melanoma
OVCAR-4 ovarian = tested on: OVCAR-4 ovarian
M14 melanoma = tested on: M14 melanoma
RXF 393 renal = tested on: RXF 393 renal
SK-MEL-28 melanoma = tested on: SK-MEL-28 melanoma
KM12 colon = tested on: KM12 colon
A498 renal = tested on: A498 renal
SN12C renal = tested on: SN12C renal
UACC-257 melanoma = tested on: UACC-257 melanoma
BT-549 breast = tested on: BT-549 breast

Row | Structure (SMILES) | TGI (MALME-3M melanoma) | TGI (OVCAR-4 ovarian) | TGI (M14 melanoma) | TGI (RXF 393 renal) | TGI (SK-MEL-28 melanoma) | TGI (KM12 colon) [µM] | TGI (A498 renal) [µM] | TGI (SN12C renal) | TGI (UACC-257 melanoma) | GI50 (MALME-3M melanoma) [µM] | GI50 (M14 melanoma) [µM] | GI50 (SK-MEL-28 melanoma) [µM] | GI50 (KM12 colon) [µM] | GI50 (A498 renal) [µM] | GI50 (BT-549 breast) [µM] | TGI (BT-549 breast) [µM] | GI50 (SN12C renal) [µM] | GI50 (UACC-257 melanoma) [µM] | GI50 (OVCAR-4 ovarian) [µM] | GI50 (RXF 393 renal) [µM]
1 | Cc1ccccc1C1OC(=O)c2ccc3ccccc3c21 (stereo not given) | 14 µM | 19.2 µM | 10.9 µM | 6.95 µM | 10.1 µM | 13.7 | 8.51 | 18.3 µM | 12.2 µM | – | – | – | – | – | – | – | – | – | – | –
2 | C=CCN=C(N/N=C/c1ccc([N+](=O)[O-])o1)NS(=O)(=O)c1cc(C(=O)Nc2ccc(Cl)cc2)c(Cl)cc1SC | 63.4 µM | > 34.1 µM | > 21.6 µM | – | > 100 µM | > 100 | > 100 | > 100 µM | > 59.9 µM | 5.08 | 3.09 | 25.9 | 6.89 | 28.5 | 5.05 | > 79.7 | 2.63 | 4.28 | – | –
3 | C[C@@]12CCC(=O)c3coc(c31)C(=O)c1cc3c(cc12)C(=O)C=CC3=O | > 1 µM and 31.3 µM | > 1 µM and 32.1 µM | > 1 µM and 27.6 µM | > 1 µM and 37.1 µM | > 1 µM and 29.9 µM | > 61.6 | > 100 | > 1 µM and 30.7 µM | > 1 µM and 23.8 µM | > 1 | > 1 | > 1 | > 1 | – | – | – | > 1 | > 1 | > 1 | > 1
4 | COc1cc2ccnc3c2c(c1OC)-c1coc(SC)c1-3 | > 100 µM | > 100 µM | > 100 µM | 52.1 µM | – | > 100 | > 100 | > 100 µM | > 100 µM | – | – | – | – | – | – | – | – | – | – | –
5 | COc1cc(OC)c(C/C=C/c2ccccc2)cc1O | 30.5 µM | 33.5 µM | 38 µM | – | 30.4 µM | 31.5 | 28.8 | 32.7 µM | 55.6 µM | – | – | – | – | – | – | 29.6 | – | – | – | –
6 | COc1cc(OC)c2nc(C)c3c(c2c1)SCC3 | 63.8 µM | 38.5 µM | > 100 µM | 54.1 µM | > 100 µM | > 100 | 36.2 | 57.9 µM | 78.3 µM | – | – | – | – | – | – | – | – | – | – | –
7 | O=[N+]([O-])c1ccc(-n2nnc(C3=NCCN3)c2-c2ccccc2)cc1 | > 100 µM | > 100 µM | > 100 µM | > 100 µM | > 100 µM | > 100 | > 100 | > 100 µM | > 100 µM | – | – | – | – | – | – | – | – | – | – | –
8 | CCOC(=O)CC[C@H](NC(=O)c1nc[nH]c1[N+](=O)[O-])C(=O)OCC | > 100 µM | > 100 µM | > 100 µM | > 100 µM | > 100 µM | > 100 | > 100 | > 100 µM | > 100 µM | – | – | – | – | – | – | – | – | – | – | –
9 | O=C1NNC2(C(=O)N1)c1ccccc1-c1ccccc12 | > 10 µM | > 10 µM | > 10 µM | > 10 µM | > 10 µM | > 10 | – | > 10 µM | > 10 µM | – | – | – | – | – | – | > 10 | – | – | – | –
10 | O=C(O)CC[C@H](NC(=O)c1ccc(-n2nc3ccc(O)cc3nc2=O)cc1)C(=O)O | > 100 µM | > 100 µM | > 100 µM | > 100 µM | > 100 µM | > 100 | > 100 | > 100 µM | > 100 µM | – | – | – | – | – | – | – | – | – | – | –
11 | CC(CN(C)C)/C(=N\Nc1ccccc1)c1ccccc1 (stereo not given) | 29.1 µM | 19.8 µM | 16.8 µM | 65.4 µM | 5.79 µM | 14.4 | > 100 | > 100 µM | 15.3 µM | – | – | – | – | – | – | – | – | – | – | –
12 | C/C(O)=C(/C=N/C(=S)Nc1ccc(S(N)(=O)=O)cc1)C(=O)Nc1ccccc1C | – | > 100 µM | > 100 µM | > 100 µM | – | > 100 | – | > 100 µM | > 100 µM | – | – | – | – | – | – | > 100 | – | – | – | –
13 | O=C1C(c2ccccc2)=C(O)c2cccc3cccc1c23 | > 100 µM | > 100 µM | > 100 µM | > 100 µM | > 100 µM | > 100 | > 100 | > 100 µM | > 100 µM | – | – | – | – | – | – | – | – | – | – | –
14 | OC(CCNC12CC3CC(CC(C3)C1)C2)c1ccccc1 (stereo not given) | > 100 µM | > 100 µM | > 100 µM | > 100 µM | > 100 µM | > 100 | > 100 | > 100 µM | > 100 µM | – | – | – | – | – | – | – | – | – | – | –
15 | CC1(C)CC(O)C(C)(C)[C@@H](O)C1 (stereo not given in full) | > 100 µM | > 100 µM | > 100 µM | > 100 µM | > 100 µM | > 100 | – | > 100 µM | > 100 µM | – | – | – | – | – | – | > 100 | – | – | – | –
16 | CCOc1cc2c(C(=O)CC)c(O)ccc2o1 | > 100 µM | > 56.8 µM | > 100 µM | > 95.7 µM | > 58.4 µM | > 100 | > 94.4 | > 100 µM | > 100 µM | – | – | – | – | – | – | – | – | – | – | –
17 | O=C(c1ccc(Cl)cc1Cl)C1[C@H]2C(=O)N(c3ccc(Cc4ccc(N5C(=O)[C@@H]6ON(c7ccccc7)C(C(=O)c7ccc(Cl)cc7Cl)[C@@H]6C5=O)cc4)cc3)C(=O)[C@H]2ON1c1ccccc1 (stereo not given in full) | > 50 µM | > 50 µM | > 50 µM | > 50 µM | > 50 µM | > 50 | > 50 | > 50 µM | > 50 µM | – | – | – | – | – | – | – | – | – | – | –
18 | COc1cc(C(=O)c2c(-c3ccccc3)oc3c(OC)cccc23)cc(OC)c1OC | > 100 µM | > 100 µM | – | 4.69 µM | > 100 µM | > 100 | 0.0696 | > 100 µM | > 100 µM | 1.32 | – | 13.8 | 0.0567 | 0.0212 | 0.154 | 1.5 | 0.257 | 28.3 | – | 0.0414
19 | COc1cc2c(cc1OC)[C@H](C)N1CCc3cc(OC)c(OC)cc3[C@@H]1C2 | > 100 µM | > 100 µM | – | – | > 100 µM | > 100 | > 100 | > 100 µM | > 100 µM | – | – | – | – | – | – | > 100 | – | – | – | –
20 | Cc1c(C(=O)Nc2ccccc2)sc2ncn(Cc3cccc(Cl)c3)c(=O)c12 | – | > 100 µM | > 100 µM | 71.4 µM | > 100 µM | > 100 | – | 85.1 µM | > 100 µM | – | 43.6 | > 100 | 99 | – | 11.3 | 27.6 | 20 | 34.4 | 27.8 | 24.8
21 | COC(C(=O)NN)c1ccccc1 (stereo not given) | > 100 µM | – | > 100 µM | > 100 µM | > 100 µM | > 100 | – | > 100 µM | > 100 µM | – | – | – | – | – | – | > 100 | – | – | – | –
